From patent US5358712A, “Radiopharmaceutical agents for the detection of Alzheimer's disease” (Regents of the University of Minnesota, priority 1993, dated 1994)
One block for each molecule: values may come before it.

Legend:
[1] = Tissue distribution (biodistribution) of radioiodinated compound in the rat; conditions: for decrease of concentration in the brain / initial accumulation in the rat brain / Brain: Blood Ratio / Heart: Blood Ratio / radioactivity in blood / radioactivity in brain / radioactivity in heart / radioactivity in kidney / radioactivity in liver / radioactivity in lung / radioactivity in muscle / radioactivity in spleen / tissue uptake at 5 min / tissue uptake at 0.5 h / tissue uptake at 1 h / tissue uptake at 3 h: rat; for Brain: Blood Ratio / Heart: Blood Ratio / radioactivity in blood / radioactivity in brain / radioactivity in heart / radioactivity in kidney / radioactivity in liver / radioactivity in lung / radioactivity in muscle / radioactivity in spleen / tissue uptake at 5 min / tissue uptake at 0.5 h / tissue uptake at 1 h / tissue uptake at 3 h: iv; for tissue uptake at 0.5 h: 30 min
[2] = system: vesamicol receptor; experiment: Blocking experiments: inhibition of radiotracer accumulation in the rat by coadministered compound; type: in vivo, rat (male Wistar)
Method: *Animals in group 1 received an iv injection of (+)4-[^125 l]HIPP
only. For groups 2, 3, and 4, the radiotracer was coadministered with the
hydrochlorides of (+)7 (0.53 mg/kg), (-)7 (0.53 mg/kg) and vesamicol (0.3
Four groups of male Wistar rats (n=3) were used in these experiments. All animals received an iv dose of 8-10 μCi of the radiotracer in 0.1 ml of 50% aq. ethanol. Additionally, in groups 2, 3 and 4, the radiotracer was coadministered with (+)-HBrPP.HCl(1.3 μmol/kg), (-)-HBrPP.HCl(1.3 μmol/kg) and (dl)-vesamicol hydrochloride (1.1 μmol/kg), respectively. At 60 min. post-injection, blood was collected by cardiac puncture and the animals sacrificed as described above. The data was analyzed as outlined above.
NOTE: The dose of radiotracer injected was 5-7 mCi. Group I was the
control, injected with the radiotracer only. Group II included the
simultaneous injection of "cold"(dl)3-HIPP (HCl) (0.53 mg/kg). Group III
included the simultaneous injection of (dl) vesamicol (HCl) (0.31 mg/kg).
All rats were sacrificed at one hour postinjection.
NOTE: Group I was the control, injected with the radiotracer only. Group
II included the simultaneous injection of "cold"(dl)3-HIPP (HCl) (0.53
mg/kg). Group III included the simultaneous injection of (dl) vesamicol
hydrochloride (0.31 mg/kg). The dose of radiotracer was 8-9 μCi. All
rats were sacrificed at one hour postinjection.
NOTE: Group I received (+)[^125 l]13 only. Group II received the (+)
radiotracer coinjected with 0.31 mg/kg (dl)vesamicol hydrochloride. Group
III received (-)[^125 l]13 only. Group IV received the (-) radiotrace
coinjected with 0.31 mg/kg (dl)vesamicol hydrochloride. All animals were
sacrificed at one hour postinjection. The dose of radiotracer injected pe

[3] = rat, iv, 60 min, + (dl)-vesamicol HCl 0.3 (Table 3) or 0.31 mg/kg; 60 min
[4] = rat, iv, 60 min, + cold (dl)3-HIPP HCl 0.53 mg/kg; 60 min
[5] = rat, iv, 60 min, radiotracer only (control)

Structure (SMILES): OC(Cc1ccc(I)cc1)CN1CCC(c2ccccc2)CC1 (racemic) [Compound 5, (dl)-2-Hydroxy-3-(4-iodophenyl)-1-(4-phenylpiperidyl)propane]
brain retention (in words) ([1]; rodent (and monkey)): prolonged brain retention
vesamicol receptor ligand (in words) ([2]; conclusion from blocking and regional distribution in vivo): potent ligand
effect of coadministered vesamicol on accumulation (in words) ([2]; rat): can be blocked by vesamicol

decrease of concentration in the brain ([1]; 1 hour post-injection vs initial, listed as (-)-[^125 I]12): 43%
decrease of concentration in the brain ([1]; 3 hours post-injection vs initial, listed as (-)-[^125 I]12): 74%
initial accumulation in the rat brain ([1]; listed as (-)-[^125 I]12): 1.86 % of the injected dose
Brain: Blood Ratio ([1]; 5 min): 9.0
Heart: Blood Ratio ([1]; 5 min): 11.4
radioactivity in blood ([1]; 5 min): 0.11 % dose/g
radioactivity in brain ([1]; 5 min): 0.98 % dose/g
radioactivity in heart ([1]; 5 min): 1.26 % dose/g
radioactivity in kidney ([1]; 5 min): 2.46 % dose/g
radioactivity in liver ([1]; 5 min): 1.41 % dose/g
radioactivity in lung ([1]; 5 min): 8.94 % dose/g
radioactivity in muscle ([1]; 5 min): 0.36 % dose/g
radioactivity in spleen ([1]; 5 min): 0.66 % dose/g
Brain: Blood Ratio ([1]; 60 min): 5.1
Heart: Blood Ratio ([1]; 60 min): 1.9
radioactivity in blood ([1]; 60 min): 0.11 % dose/g
radioactivity in brain ([1]; 60 min): 0.56 % dose/g
radioactivity in heart ([1]; 60 min): 0.21 % dose/g
radioactivity in kidney ([1]; 60 min): 1.00 % dose/g
radioactivity in liver ([1]; 60 min): 1.04 % dose/g
radioactivity in lung ([1]; 60 min): 1.04 % dose/g
radioactivity in muscle ([1]; 60 min): 0.14 % dose/g
radioactivity in spleen ([1]; 60 min): 0.95 % dose/g
Brain: Blood Ratio ([1]; 180 min): 2.6
Heart: Blood Ratio ([1]; 180 min): 0.9
radioactivity in blood ([1]; 180 min): 0.11 % dose/g
radioactivity in brain ([1]; 180 min): 0.27 % dose/g
radioactivity in heart ([1]; 180 min): 0.10 % dose/g
radioactivity in kidney ([1]; 180 min): 0.59 % dose/g
radioactivity in liver ([1]; 180 min): 0.79 % dose/g
radioactivity in lung ([1]; 180 min): 0.46 % dose/g
radioactivity in muscle ([1]; 180 min): 0.08 % dose/g
radioactivity in spleen ([1]; 180 min): 0.44 % dose/g
effect of coadministered vesamicol on accumulation (in words) ([2]; rat): inhibited
Brain: Blood Ratio [2, 3]: 1.40
Heart: Blood Ratio [2, 3]: 0.95
radioactivity in blood [2, 3]: 0.14 % dose/g of tissue
radioactivity in brain [2, 3]: 0.20 % dose/g of tissue
radioactivity in heart [2, 3]: 0.14 % dose/g of tissue
radioactivity in kidney [2, 3]: 0.46 % dose/g of tissue
radioactivity in liver [2, 3]: 0.81 % dose/g of tissue
radioactivity in lung [2, 3]: 0.73 % dose/g of tissue
radioactivity in muscle [2, 3]: 0.13 % dose/g of tissue
radioactivity in spleen [2, 3]: 0.50 % dose/g of tissue
radioactivity in blood ([2]; rat, iv, 60 min, + cold (dl)3-HIPP HCl 0.53 mg/kg): 0.13 % dose/g of tissue
Brain: Blood Ratio [2, 4]: 1.19
Heart: Blood Ratio [2, 4]: 0.87
radioactivity in brain [2, 4]: 0.15 % dose/g of tissue
radioactivity in heart [2, 4]: 0.11 % dose/g of tissue
radioactivity in kidney [2, 4]: 0.46 % dose/g of tissue
radioactivity in liver [2, 4]: 0.63 % dose/g of tissue
radioactivity in lung [2, 4]: 0.57 % dose/g of tissue
radioactivity in muscle [2, 4]: 0.10 % dose/g of tissue
radioactivity in spleen [2, 4]: 0.36 % dose/g of tissue
Brain: Blood Ratio [2, 5]: 5.08
Heart: Blood Ratio [2, 5]: 1.57
radioactivity in blood [2, 5]: 0.13 % dose/g of tissue
radioactivity in brain [2, 5]: 0.64 % dose/g of tissue
radioactivity in heart [2, 5]: 0.20 % dose/g of tissue
radioactivity in kidney [2, 5]: 0.98 % dose/g of tissue
radioactivity in liver [2, 5]: 0.86 % dose/g of tissue
radioactivity in lung [2, 5]: 0.92 % dose/g of tissue
radioactivity in muscle [2, 5]: 0.15 % dose/g of tissue
radioactivity in spleen [2, 5]: 0.83 % dose/g of tissue
Structure (SMILES): OC(Cc1cccc([125I])c1)CN1CCC(c2ccccc2)CC1 (single isomer, unassigned; (-)) [(-)-[^125 l]12] [2-Hydroxyl-3-(3-iodophenyl)-1-[1-(4-phenylpiperidinyl)]propane]

decrease of concentration in the brain ([1]; 3 hours post-injection vs initial, listed as (-)-[^125 I]13): 85%
initial accumulation in the rat brain ([1]; listed as (-)-[^125 I]13): 1.69 % of the injected dose
Brain: Blood Ratio ([1]; 5 min): 8.7
Heart: Blood Ratio ([1]; 5 min): 6.2
radioactivity in blood ([1]; 5 min): 0.13 % dose/g
radioactivity in brain ([1]; 5 min): 1.08 % dose/g
radioactivity in heart ([1]; 5 min): 0.77 % dose/g
radioactivity in kidney ([1]; 5 min): 3.38 % dose/g
radioactivity in liver ([1]; 5 min): 1.72 % dose/g
radioactivity in lung ([1]; 5 min): 5.05 % dose/g
radioactivity in muscle ([1]; 5 min): 0.32 % dose/g
radioactivity in spleen ([1]; 5 min): 0.70 % dose/g
Brain: Blood Ratio ([1]; 60 min): 11.1
Heart: Blood Ratio ([1]; 60 min): 2.0
radioactivity in blood ([1]; 60 min): 0.06 % dose/g
radioactivity in brain ([1]; 60 min): .70 % dose/g
radioactivity in heart ([1]; 60 min): 0.13 % dose/g
radioactivity in kidney ([1]; 60 min): 1.47 % dose/g
radioactivity in liver ([1]; 60 min): 1.90 % dose/g
radioactivity in lung ([1]; 60 min): 0.54 % dose/g
radioactivity in muscle ([1]; 60 min): 0.11 % dose/g
radioactivity in spleen ([1]; 60 min): 0.57 % dose/g
Brain: Blood Ratio ([1]; 180 min): 5.5
Heart: Blood Ratio ([1]; 180 min): 0.9
radioactivity in blood ([1]; 180 min): 0.06 % dose/g
radioactivity in brain ([1]; 180 min): 0.35 % dose/g
radioactivity in heart ([1]; 180 min): 0.05 % dose/g
radioactivity in kidney ([1]; 180 min): 0.74 % dose/g
radioactivity in liver ([1]; 180 min): 0.98 % dose/g
radioactivity in lung ([1]; 180 min): 0.24 % dose/g
radioactivity in muscle ([1]; 180 min): 0.05 % dose/g
radioactivity in spleen ([1]; 180 min): 0.23 % dose/g
radioactivity in heart ([2]; rat, iv, 60 min, + (dl)-vesamicol HCl 0.3 (Table 3) or 0.31 mg/kg): 0.08 % dose/g of tissue
Brain: Blood Ratio [2, 3]: 1.61
Heart: Blood Ratio [2, 3]: 0.99
radioactivity in blood [2, 3]: 0.08 % dose/g of tissue
radioactivity in brain [2, 3]: 0.13 % dose/g of tissue
radioactivity in kidney [2, 3]: 0.38 % dose/g of tissue
radioactivity in liver [2, 3]: 1.44 % dose/g of tissue
radioactivity in lung [2, 3]: 0.34 % dose/g of tissue
radioactivity in muscle [2, 3]: 0.07 % dose/g of tissue
radioactivity in spleen [2, 3]: 0.27 % dose/g of tissue
Brain: Blood Ratio [2, 5]: 7.41
Heart: Blood Ratio [2, 5]: 1.31
radioactivity in blood [2, 5]: 0.10 % dose/g of tissue
radioactivity in brain [2, 5]: 0.73 % dose/g of tissue
radioactivity in heart [2, 5]: 0.13 % dose/g of tissue
radioactivity in kidney [2, 5]: 1.26 % dose/g of tissue
radioactivity in liver [2, 5]: 1.66 % dose/g of tissue
radioactivity in lung [2, 5]: 0.66 % dose/g of tissue
radioactivity in muscle [2, 5]: 0.11 % dose/g of tissue
radioactivity in spleen [2, 5]: 0.61 % dose/g of tissue
Structure (SMILES): OC(CN1CCC(c2ccccc2)CC1)c1ccc([125I])cc1 (single isomer, unassigned; (-)) [(-)-[^125 l]13] [1-(4-Iodophenyl)-2-(4-phenylpiperidinyl)ethanol]

Structure (SMILES): OC(Cc1ccc([125I])cc1)CN1CCC(c2ccccc2)CC1 (single isomer, unassigned; (+)) [(+)-4-[^125 l]HIPP, 2-Hydroxy-3-(4-iodophenyl)-1-(4-phenylpiperidyl)propane]
tissue uptake at 5 min ([1]; blood, radioactivity in blood, 5 min): 0.08 %ID/g
tissue uptake at 0.5 h ([1]; blood, radioactivity in blood): 0.04 %ID/g
tissue uptake at 1 h ([1]; blood, radioactivity in blood, 60 min): 0.03 %ID/g
tissue uptake at 5 min ([1]; brain, radioactivity in brain, 5 min): 1.2 %ID/g
tissue uptake at 0.5 h ([1]; brain, radioactivity in brain): 1.22 %ID/g
tissue uptake at 1 h ([1]; brain, radioactivity in brain, 60 min): 1.23 %ID/g
tissue uptake at 3 h ([1]; brain, radioactivity in brain, 180 min): 1.35 %ID/g
tissue uptake at 5 min ([1]; heart, radioactivity in heart, 5 min): 1.8 %ID/g
tissue uptake at 0.5 h ([1]; heart, radioactivity in heart): 1.23 %ID/g
tissue uptake at 1 h ([1]; heart, radioactivity in heart, 60 min): 1.12 %ID/g
tissue uptake at 3 h ([1]; heart, radioactivity in heart, 180 min): 0.84 %ID/g
tissue uptake at 5 min ([1]; kidney, radioactivity in kidney, 5 min): 2.84 %ID/g
tissue uptake at 0.5 h ([1]; kidney, radioactivity in kidney): 2.42 %ID/g
tissue uptake at 1 h ([1]; kidney, radioactivity in kidney, 60 min): 2.3 %ID/g
tissue uptake at 3 h ([1]; kidney, radioactivity in kidney, 180 min): 1.81 %ID/g
tissue uptake at 5 min ([1]; liver, radioactivity in liver, 5 min): 1.58 %ID/g
tissue uptake at 0.5 h ([1]; liver, radioactivity in liver): 2.55 %ID/g
tissue uptake at 1 h ([1]; liver, radioactivity in liver, 60 min): 2.43 %ID/g
tissue uptake at 3 h ([1]; liver, radioactivity in liver, 180 min): 2.38 %ID/g
tissue uptake at 5 min ([1]; lung, radioactivity in lung, 5 min): 11.5 %ID/g
tissue uptake at 0.5 h ([1]; lung, radioactivity in lung): 5.59 %ID/g
tissue uptake at 1 h ([1]; lung, radioactivity in lung, 60 min): 4.75 %ID/g
tissue uptake at 3 h ([1]; lung, radioactivity in lung, 180 min): 3.74 %ID/g
tissue uptake at 5 min ([1]; muscle, radioactivity in muscle, 5 min): 0.24 %ID/g
tissue uptake at 0.5 h ([1]; muscle, radioactivity in muscle): 0.25 %ID/g
tissue uptake at 1 h ([1]; muscle, radioactivity in muscle, 60 min): 0.19 %ID/g
tissue uptake at 3 h ([1]; muscle, radioactivity in muscle, 180 min): 0.24 %ID/g
tissue uptake at 5 min ([1]; spleen, radioactivity in spleen, 5 min): 0.71 %ID/g
tissue uptake at 0.5 h ([1]; spleen, radioactivity in spleen): 1.28 %ID/g
tissue uptake at 1 h ([1]; spleen, radioactivity in spleen, 60 min): 1.23 %ID/g
tissue uptake at 3 h ([1]; spleen, radioactivity in spleen, 180 min): 1.39 %ID/g
